Assay results from patent US20120225889A1, “USE OF MACROCYCLIC LACTONE DERIVATIVES FOR THE TREATMENT OF INFLAMMATORY DISORDERS” (PIRAMAL LIFE SCIENCES LIMITED, priority 2010, published 2012).

Tests used:
IL-6 [1] = assay: Synovial tissue assay (spontaneous production): IL-6; format: cell-based; details: Homo sapiens, synovial tissue cells from rheumatoid arthritis patients, 16 h, read-out: IC50 of IL-6 inhibition
Source text: The ability of compounds of the present invention to inhibit spontaneous production of cytokines from freshly isolated human synovial tissue cells was designed as in reference, Lancet, 29, 244-247, (1989) the disclosure of which is incorporated by reference for the teaching of the assay.
Synovial tissue was obtained from rheumatoid arthritis patients undergoing knee replacement surgery. […] Subsequently, the cells were washed 3 times with RPMI 1640 culture medium and resuspended in complete medium (RPMI 1640 culture medium supplemented with 5% FBS and 5% human serum-AB+(Sigma, USA) at a concentration of 1×10^6 cells/mL. The viability of synovial cells was determined by trypan blue dye exclusion and was uniformly ≧98%. For the experiment, 100 μL of cell suspension was added to the wells of a 96-well culture plate (Nunc, USA). Following cell plating, 100 μL of the culture medium and 1 μL of various concentrations of the test compound (test compound was dissolved in DMSO to obtain a stock solution of 20 mM. […] The IC50 values were calculated by a nonlinear regression method using the GraphPad software (Prism 3.03).

CEBPβ = assay: Gene expression profile using RTQ-PCR: CEBPβ; format: cell-based, human; details: 3 μM
Description: (§1) The effect of the compound of example 7 was measured in stimulated untreated cells from the monocytic cell line (THP-1), human monocytes and synovial cells from rheumatoid arthritis patient. The effect of the compound in the THP-1 cell line was measured in terms of gene expression and was expressed as fold changes as compared to the cell stimulated control with no drug treatment.
(§2) THP-1 cells, human monocytes and synovial cells were treated with compound of example 7 or vehicle (0.5% DMSO). Total RNA isolation using a commercial RNA extraction kit (Qiagen Corporation, Germany) The first-strand cDNA was synthesized from total RNA using first strand cDNA synthesis kit from Invitrogen Corporation (California, USA). This was followed by real time quantitative polymerase chain reaction (RTQ PCR) using gene specific primers and standard thermal program of initial denaturation at 95° C. for 5 min and cycles of 95° C. for 10 seconds, followed by 60° C. for 30 seconds (Realplex PCR machine from Eppendorf, Germany). Quantitative measurement of products made during PCR cycles was normalized against a housekeeping gene (Actin) and was used to measure the gene expression as fold changes as compared to respective control.

IL-6 [2] = assay: Human monocyte assay (LPS-induced): IL-6; format: cell-based; details: LPS stimulated human monocytes, 5 h
Source text: The assay was designed as in reference, Physiological Research, 52, 593-598, (2003), the disclosure of which is incorporated by reference for the teaching of the assay.
The objective of the assay is to determine whether compounds of the present invention—mediated inhibition of LPS-induced cytokines from monocytic THP-1 cell line translates to physiologically relevant human cells. Accordingly, the effect of compounds of the present invention on LPS—induced cytokine production from freshly isolated human monocytes was ascertained.
Peripheral blood was collected from healthy donors into potassium EDTA vacutainer tubes (BD Biosciences, USA). hPBMCs were isolated using density gradient separation (Histopaque-1077; Sigma, USA) and suspended in assay medium which is RPMI culture medium (Sigma, USA) containing 10% heat inactivated FBS (JRH Biosciences, Australia), 100 U/mL penicillin (Sigma, USA) and […] streptomycin (Sigma, USA). Monocytes in the hPBMCs were counted using a Coulter Counter following which the cells were resuspended at 2×10^5 monocytes/mL of assay medium. A cell suspension containing 2×10^4 monocytes was aliquoted per well of a 96-well plate (Nunc, USA). Subsequently, the hPBMCs were incubated for 4-5 h at 37° C., 5% CO2. During the incubation, the monocytes adhered to the bottom of 96-well plate. Following the incubation, the non-adherent lymphocytes were washed and assay medium was added to adherent monocytes. After 48 h of incubation at 37° C., 5% CO2, monocytes were pre-treated with various concentrations of test compound (prepared as 20 mM stock in DMSO; 1 μL of […] concentrated solution of test compound was dissolved in 200 μL cell suspension to achieve a final concentration of 0.03, 0.1, 0.3, 1, 3, 10, 30 and 100 μM) or vehicle (0.5% DMSO) or 10 μM dexamethasone (standard IL-6 and TNF-α inhibitor, Sigma, USA) for 30 min at 37° C., 5% CO2 and stimulated with 1 μg/mL LPS (Escherchia coli 0111:B4, Sigma, USA). The cells were then incubated for 5 h at 37° C., 5% CO2 following which supernatants were collected, stored at −70° C. and were assayed later for IL-6, and TNF-α by ELISA (OptiEIA ELISA sets, BD Biosciences, USA). The IC50 values were calculated by a nonlinear regression method using Graph Pad software (Prism 3.03).

BCL2 = assay: Gene expression profile using RTQ-PCR: BCL2; format: cell-based, human; details: 3 μM, ± SE, N = 3
Description: as §1, §2

MyD88 = assay: Gene expression profile using RTQ-PCR: MyD88; format: cell-based, human; details: 3 μM
Description: as §1, §2

GBP-1 = assay: Gene expression profile using RTQ-PCR: GBP-1; format: cell-based, human; details: 3 μM, 12 h
Description: as §1, §2

[3] = Human monocytes, 3 h, ± SE, N = 3

`C/C=C/C(O)C(C)/C=C/C(=N\O)C(C)C(O)C(C)C1OC(=O)/C(OC)=C/C(C)=C/C(C)C(O)C(CC)C(O)C(C)C/C(C)=C/C=C/C1OC` (stereo not drawn) [Compound of example 7, (3Z,5E,13E,15E)-18-((5Z,6E,10E)-3,9-Dihydroxy-5-(hydroxymino)-4,8-dimethyldodeca-6,10-dien-2-yl)-9-ethyl-8,10-dihydroxy-3,17-dimethoxy-5,7,11,13-tetramethyl oxacyclooctadeca-3,5,13,15-tetraen-2-one] was tested, and the IC50 (IL-6 [1]) was 300 nM, the CEBPβ gene expression (CEBPβ; [3]) was −2.2 + 0.3 log fold change and the CEBPβ gene expression (CEBPβ; Synovial cells, 12 h, N = 1) was 0.4 log fold change. For the same molecule, the CEBPβ gene expression (CEBPβ; THP-1 cells, 12 h, ± SE, N = 3) was −0.2 + 0.5 log fold change, the IC50 (IL-6 [2]) was 300 nM and the BCL2 gene expression (BCL2; Human monocytes, 3 h) was −1.7 + 0.4 log fold change. For the same molecule, the BCL2 gene expression (BCL2; THP-1 cells, 12 h) was −1.3 ± 0.8 log fold change, the MyD88 gene expression (MyD88; [3]) was −0.2 + 1.9 log fold change and the MyD88 gene expression (MyD88; Synovial cells, 12 h, N = 1) was −0.5 log fold change. The MyD88 gene expression (MyD88; THP-1 cells, 12 h, ± SE, N = 3) was −0.2 + 0.2 log fold change, the GBP-1 gene expression (GBP-1; Synovial cells, N = 1) was −1.5 log fold change and the GBP-1 gene expression (GBP-1; THP-1 cells, ± SE, N = 3) was −1.6 + 1.0 log fold change.
